The record followed here is BindingDB's records for doi:10.1016/j.bmcl.2018.11.015 (Boehringer Ingelheim Pharmaceuticals, 2019).

The assay is described as follows: Antagonist activity at CCR1 in human THP1 cells assessed as inhibition of chemotaxis after 30 mins by Celltiter-glo reagent based luminescence assay. (ATP-based viability assays read luminescence as a measure of living cells.)

In general, IC50 refers to the concentration that gives 50% inhibition. On to `CC(C)[C@@H](NC(=O)NCC(C)(C)O)C(=O)N1CC[C@](O)(c2ccc(Cl)cc2)C(C)(C)C1`, for which the IC50 was 1.5 nM.

For `Cc1c(C(=O)NCc2cccc(C(F)(F)F)c2)cnn1-c1ccc(Cl)c(Cl)c1`, the IC50 came to 1200 nM.

For the molecule `COc1cc(N2CCN(C(=O)Cn3nc(-c4ncc[nH]4)c4cccnc43)CC2)ccc1Cl`, the IC50 was found to be 4 nM.

As for `CC(C)(O)c1ccc2c(c1)/C(=C\CCN1CC[C@](O)(c3ccc(Cl)cc3)C(C)(C)C1)c1cccnc1CO2`, the half-maximal inhibitory concentration (IC50) turned out to be 1.8 nM.
